Reference: patent US20260374754A1, “N-((ISOQUINOLIN-6-YL)METHYL)-1H-PYRAZOLE-4-CARBOXAMIDE DERIVATIVES AS PLASMA KALLIKREIN INHIBITORS FOR THE TREATMENT OF HEREDITARY ANGIODEMA” (Takeda Pharmaceutical Company Limited, priority 2022, published 2026)

Target: human activated kallikrein enzyme (Homo sapiens, UniProt P03952)
Assay: Inhibition of human activated plasma kallikrein, fluorogenic PFR-AMC substrate, 500 pM enzyme format
Assay type: biochemical
Settings: 500 pM activated kallikrein; 300 μM PFR-AMC; 30 min preincubation; 10 min room temperature; pH 7.5; read-out: Primary Dose Response Assay: Average EC50
Protocol: Compounds were evaluated for inhibition of the human activated kallikrein enzyme in two formats of an assay employing a fluorogenic peptide substrate. In one assay format, the concentrations of reagents were as follows: 20 mM Tris pH 7.5, 1 mM EDTA, 150 mM sodium chloride, 0.1% PEG-400, 0.1% Triton X-100, 500 pM activated kallikrein enzyme, 300 μM Pro-Phe-Arg-7-amido-4-methylcoumarin (PFR-AMC) substrate. Prior to reaction initiation with substrate, enzyme and inhibitors were preincubated for 30 min at room temperature. After initiation with substrate, reactions were incubated for 10 min at room temperature and fluorescence emission at 460 nm from 380 nm excitation measured with a microplate reader. In another assay format, the concentrations of reagents were as follows: 20 mM Tris pH 7.5, 1 mM EDTA, 150 mM sodium chloride, 0.1% PEG-400, 0.1% Triton X-100, 5 pM activated kallikrein enzyme, 300 uM PFR-AMC substrate. Prior to reaction initiation with substrate, enzyme and inhibitors were preincubated for 30 min at room temperature. After initiation with substrate, reactions were incubated for 18 hr at room temperature and fluorescence emission at 460 nm from 380 nm excitation measured with a microplate reader.
Table 35 provides the results of the assay in the format with 500 pM activated kallikrein assay.

Chain of human activated kallikrein enzyme (P03952 391-638 limits assumed): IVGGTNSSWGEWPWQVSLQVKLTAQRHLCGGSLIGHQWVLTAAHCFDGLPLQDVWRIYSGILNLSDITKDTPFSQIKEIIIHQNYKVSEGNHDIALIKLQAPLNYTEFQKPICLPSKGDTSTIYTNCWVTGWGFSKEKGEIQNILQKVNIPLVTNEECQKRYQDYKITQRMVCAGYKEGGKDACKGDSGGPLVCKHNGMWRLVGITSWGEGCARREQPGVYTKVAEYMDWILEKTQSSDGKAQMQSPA
Chain of human activated kallikrein enzyme (P03952 20-390 partner limits assumed): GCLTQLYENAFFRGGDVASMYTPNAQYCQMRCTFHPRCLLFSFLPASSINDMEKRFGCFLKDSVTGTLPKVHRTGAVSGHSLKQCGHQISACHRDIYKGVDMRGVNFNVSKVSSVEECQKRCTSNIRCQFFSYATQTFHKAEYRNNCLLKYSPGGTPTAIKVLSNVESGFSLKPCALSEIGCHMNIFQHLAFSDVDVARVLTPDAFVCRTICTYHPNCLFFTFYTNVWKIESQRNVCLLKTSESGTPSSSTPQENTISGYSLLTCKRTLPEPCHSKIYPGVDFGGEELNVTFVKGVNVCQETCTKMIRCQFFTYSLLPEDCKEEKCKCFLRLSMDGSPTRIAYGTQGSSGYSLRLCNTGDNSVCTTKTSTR

SMILES | EC50
Cc1cccc(Cn2cc(C(=O)NCc3c(C)cc4c(N)nccc4c3C)cn2)c1 [Example 41, N-((1-amino-5,7-dimethylisoquinolin-6-yl)methyl)-1-(3-methylbenzyl)-1H-pyrazole-4-carboxamide] | 10 to 100 nM
Cc1cc2c(N)nccc2c(C)c1CNC(=O)c1cnn(Cc2ccccc2C(F)(F)F)c1 [Example 42, N-((1-amino-5,7-dimethylisoquinolin-6-yl)methyl)-1-(2-(trifluoromethyl)benzyl)-1H-pyrazole-4-carboxamide] | > 1000 nM
COc1cccc(Cn2cc(C(=O)NCc3c(C)cc4c(N)nccc4c3C)cn2)c1 [Example 43, N-((1-amino-5,7-dimethylisoquinolin-6-yl)methyl)-1-(3-methoxybenzyl)-1H-pyrazole-4-carboxamide] | 10 to 100 nM
Cc1cc2c(N)nccc2c(C)c1CNC(=O)c1cnn(Cc2ccc(Cc3nnco3)cc2)c1 [Example 44, 1-(4-((1,3,4-oxadiazol-2-yl)methyl)benzyl)-N-((1-amino-5,7-dimethylisoquinolin-6-yl)methyl)-1H-pyrazole-4-carboxamide] | 1 to 10 nM
Cc1cc2c(N)nccc2c(C)c1CNC(=O)c1cnn(Cc2cccc(F)c2)c1 [Example 45, N-((1-amino-5,7-dimethylisoquinolin-6-yl)methyl)-1-(3-fluorobenzyl)-1H-pyrazole-4-carboxamide] | 100 to 1000 nM
Cc1cc2c(N)nccc2c(C)c1CNC(=O)c1cnn(Cc2ccc(-n3ccccc3=O)nc2)c1 [Example 46, N-((1-amino-5,7-dimethylisoquinolin-6-yl)methyl)-1-((2-oxo-2H-[1,2'-bipyridin]-5'-yl)methyl)-1H-pyrazole-4-carboxamide] | 10 to 100 nM
Cc1cc2c(N)nccc2c(C)c1CNC(=O)c1cnn(Cc2oc3ccccc3c2C)c1 [Example 47, N-((1-amino-5,7-dimethylisoquinolin-6-yl)methyl)-1-((3-methylbenzofuran-2-yl)methyl)-1H-pyrazole-4-carboxamide] | 10 to 100 nM
Cc1cc2c(N)nccc2c(C)c1CNC(=O)c1cnn(Cc2ccc(CCn3cccn3)cc2)c1 [Example 48, 1-(4-(2-(1H-pyrazol-1-yl)ethyl)benzyl)-N-((1-amino-5,7-dimethylisoquinolin-6-yl)methyl)-1H-pyrazole-4-carboxamide] | 1 to 10 nM
Cc1cc2c(N)nccc2c(C)c1CNC(=O)c1cnn(Cc2ccc(CCn3ccccc3=O)cc2)c1 [Example 49, N-((1-amino-5,7-dimethylisoquinolin-6-yl)methyl)-1-(4-(2-(2-oxopyridin-1(2H)-yl)ethyl)benzyl)-1H-pyrazole-4-carboxamide] | 1 to 10 nM
Cc1cc2c(N)nccc2c(C)c1CNC(=O)c1cnn(Cc2cc3cc(Br)ccc3o2)c1 [Example 50, N-((1-amino-5,7-dimethylisoquinolin-6-yl)methyl)-1-((5-bromobenzofuran-2-yl)methyl)-1H-pyrazole-4-carboxamide] | 1 to 10 nM
Cc1cc2c(N)nccc2c(C)c1CNC(=O)c1cnn(Cc2cc3cc(Br)ccc3s2)c1 [Example 51, N-((1-amino-5,7-dimethylisoquinolin-6-yl)methyl)-1-((5-bromobenzo[b]thiophen-2-yl)methyl)-1H-pyrazole-4-carboxamide] | < 1 nM
Cc1cc2c(N)nccc2c(C)c1CNC(=O)c1cnn(Cc2ccc3c(cnn3C)c2)c1 [Example 52, N-((1-amino-5,7-dimethylisoquinolin-6-yl)methyl)-1-((1-methyl-1H-indazol-5-yl)methyl)-1H-pyrazole-4-carboxamide] | 1 to 10 nM
Cc1cc2c(N)nccc2c(C)c1CNC(=O)c1cnn(Cc2cn3ccccc3n2)c1 [Example 53, N-((1-amino-5,7-dimethylisoquinolin-6-yl)methyl)-1-(imidazo[1,2-a]pyridin-2-ylmethyl)-1H-pyrazole-4-carboxamide] | 1 to 10 nM
Cc1cc2c(N)nccc2c(C)c1CNC(=O)c1cnn(Cc2cn3cccc(C)c3n2)c1 [Example 54, N-((1-amino-5,7-dimethylisoquinolin-6-yl)methyl)-1-((8-methylimidazo[1,2-a]pyridin-2-yl)methyl)-1H-pyrazole-4-carboxamide] | 1 to 10 nM
CCOC(=O)Cc1ccc(Cn2cc(C(=O)NCc3c(C)cc4c(N)nccc4c3C)cn2)cc1 [Example 55, ethyl 2-(4-((4-(((1-amino-5,7-dimethylisoquinolin-6-yl)methyl)carbamoyl)-1H-pyrazol-1-yl)methyl)phenyl)acetate] | 1 to 10 nM
Cc1cc2c(N)nccc2c(C)c1CNC(=O)c1cnn(Cc2ccc3ccccc3c2)c1 [Example 56, N-((1-amino-5,7-dimethylisoquinolin-6-yl)methyl)-1-(naphthalen-2-ylmethyl)-1H-pyrazole-4-carboxamide] | 1 to 10 nM
Cc1cc2c(N)nccc2c(C)c1CNC(=O)c1cnn(Cc2cc3cc(F)ccc3o2)c1 [Example 57, N-((1-amino-5,7-dimethylisoquinolin-6-yl)methyl)-1-((5-fluorobenzofuran-2-yl)methyl)-1H-pyrazole-4-carboxamide] | 10 to 100 nM

Next, values leading:

EC50 | SMILES
1 to 10 nM | Cc1cc2c(N)nccc2c(C)c1CNC(=O)c1cnn(Cc2ccc3c(c2)nnn3C)c1 [Example 58, N-((1-amino-5,7-dimethylisoquinolin-6-yl)methyl)-1-((1-methyl-1H-benzo[d][1,2,3]triazol-5-yl)methyl)-1H-pyrazole-4-carboxamide]
1 to 10 nM | Cc1cc2c(N)nccc2c(C)c1CNC(=O)c1cnn(Cc2ccc3cnn(C)c3c2)c1 [Example 59, N-((1-amino-5,7-dimethylisoquinolin-6-yl)methyl)-1-((1-methyl-1H-indazol-6-yl)methyl)-1H-pyrazole-4-carboxamide]
< 1 nM | Cc1cc2c(N)nccc2c(C)c1CNC(=O)c1cnn(Cc2ccc3ncccc3c2)c1 [Example 60, N-((1-amino-5,7-dimethylisoquinolin-6-yl)methyl)-1-(quinolin-6-ylmethyl)-1H-pyrazole-4-carboxamide]
< 1 nM | Cc1cc2c(N)nccc2c(C)c1CNC(=O)c1cnn(Cc2cnc3cc(Cl)ccc3c2)c1 [Example 61, N-((1-amino-5,7-dimethylisoquinolin-6-yl)methyl)-1-((7-chloroquinolin-3-yl)methyl)-1H-pyrazole-4-carboxamide]
1 to 10 nM | Cc1cc2c(N)nccc2c(C)c1CNC(=O)c1cnn(Cc2cc3c(Cl)cccc3s2)c1 [Example 62, N-((1-amino-5,7-dimethylisoquinolin-6-yl)methyl)-1-((4-chlorobenzo[b]thiophen-2-yl)methyl)-1H-pyrazole-4-carboxamide]
< 1 nM | Cc1cc2c(N)nccc2c(C)c1CNC(=O)c1cnn(Cc2ccc(CC(=O)N(C)C)cc2)c1 [Example 63, N-((1-amino-5,7-dimethylisoquinolin-6-yl)methyl)-1-(4-(2-(dimethylamino)-2-oxoethyl)benzyl)-1H-pyrazole-4-carboxamide]
< 1 nM | Cc1ccc2cc(Cn3cc(C(=O)NCc4c(C)cc5c(N)nccc5c4C)cn3)ccc2n1 [Example 64, N-((1-amino-5,7-dimethylisoquinolin-6-yl)methyl)-1-((2-methylquinolin-6-yl)methyl)-1H-pyrazole-4-carboxamide]
< 1 nM | Cc1cc2c(N)nccc2c(C)c1CNC(=O)c1cnn(Cc2cc3cc(Cl)ccc3s2)c1 [Example 65, N-((1-amino-5,7-dimethylisoquinolin-6-yl)methyl)-1-((5-chlorobenzo[b]thiophen-2-yl)methyl)-1H-pyrazole-4-carboxamide]
